From PMC7582602, “Beyond the Canonical Endocannabinoid System. A Screening of PPAR Ligands as FAAH Inhibitors” (International Journal of Molecular Sciences, 2020)
Like-named read-outs stand apart in the source and are kept apart here.

Key:
FAAH Human recombinant = target: T1, FAAH Human recombinant (Homo sapiens, UniProt O00519); test: FAAH inhibition assay (fluorometric, AMC-AA substrate); assay type: biochemical; conditions: for IC50: human recombinant FAAH, mean ± SEM, i: inactive; for inhibition at 100 µM: read-out: FAAH % inhibition @ 100 μM
T1 construct: purchased Cayman Chemical
T1 sequence (O00519 1-579): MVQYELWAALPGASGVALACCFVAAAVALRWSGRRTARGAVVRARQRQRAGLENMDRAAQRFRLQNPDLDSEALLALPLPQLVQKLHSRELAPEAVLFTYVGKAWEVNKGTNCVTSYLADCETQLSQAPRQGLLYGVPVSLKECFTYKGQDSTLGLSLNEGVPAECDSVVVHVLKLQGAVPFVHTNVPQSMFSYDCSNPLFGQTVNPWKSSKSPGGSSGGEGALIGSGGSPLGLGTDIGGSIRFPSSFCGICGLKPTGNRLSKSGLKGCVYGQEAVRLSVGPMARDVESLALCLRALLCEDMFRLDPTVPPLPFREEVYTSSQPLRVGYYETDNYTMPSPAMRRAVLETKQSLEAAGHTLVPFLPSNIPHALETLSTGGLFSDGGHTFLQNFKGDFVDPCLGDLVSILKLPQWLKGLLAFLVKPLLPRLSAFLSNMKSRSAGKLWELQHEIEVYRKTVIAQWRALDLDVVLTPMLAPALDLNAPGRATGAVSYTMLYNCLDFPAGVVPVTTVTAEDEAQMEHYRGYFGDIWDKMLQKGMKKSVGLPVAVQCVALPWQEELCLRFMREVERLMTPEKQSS
Experimental: Briefly, 96-well black flat-bottom microtiter NBS plates (COSTAR flat black) were utilized to perform the assays (in triplicate).
Control wells lacking the inhibitor and blank wells lacking both inhibitor and enzyme were used to calculate percent inhibition for each tested compound. IC50 values were calculated via GraphPad Prism 5.0 (GraphPad Software, La Jolla, CA, USA) and are reported as mean ± SEM of at least two independent measurements performed in triplicate.

human PPARα [1] = target: T2, human PPARα (Homo sapiens, UniProt Q07869); test: GAL4-PPARα-LBD transactivation (luciferase) assay in HepG2 cells; conditions: for Emax: HepG2, read-out: PPARα Emax
T2 sequence (Q07869 239-466 limits assumed): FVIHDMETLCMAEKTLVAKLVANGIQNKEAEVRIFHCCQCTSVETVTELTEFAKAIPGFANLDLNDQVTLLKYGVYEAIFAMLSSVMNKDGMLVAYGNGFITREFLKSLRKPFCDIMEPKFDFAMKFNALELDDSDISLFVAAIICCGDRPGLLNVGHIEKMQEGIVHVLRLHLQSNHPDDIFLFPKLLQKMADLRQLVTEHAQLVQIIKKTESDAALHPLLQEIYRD
Experimental: (§1) Transactivation assays were conducted seeding 10^5 cells/well in a 24-well plate. The cells were transfected after 24 h with the calcium phosphate method CAPHOS®, following the manufacturer’s guidelines. Plasmids encoding the fusion proteins GAL4-PPARa-LBD, GAL4-PPARg-LBD, GAL4-PPARd-LBD or GAL4-FXR-LBD (30 ng), pGAL5TKpGL3 (100 ng), and pCMVbgal (250 ng) were used. Treatment of the cells with the investigated compounds was carried out 4 h after transfection, in triplicate, and the cells were incubated in the treated medium for additional 20 h. Cells were then lysed and luciferase activity in the extract was determined via a VICTOR^3 V Multilabel Plate Reader, PerkinElmer).

human PPARγ [2] = target: T3, human PPARγ (Homo sapiens, UniProt P37231); test: GAL4-PPARγ-LBD transactivation (luciferase) assay in HepG2 cells; conditions: for Emax: HepG2, read-out: PPARγ Emax
T3 sequence (P37231 238-503 limits assumed): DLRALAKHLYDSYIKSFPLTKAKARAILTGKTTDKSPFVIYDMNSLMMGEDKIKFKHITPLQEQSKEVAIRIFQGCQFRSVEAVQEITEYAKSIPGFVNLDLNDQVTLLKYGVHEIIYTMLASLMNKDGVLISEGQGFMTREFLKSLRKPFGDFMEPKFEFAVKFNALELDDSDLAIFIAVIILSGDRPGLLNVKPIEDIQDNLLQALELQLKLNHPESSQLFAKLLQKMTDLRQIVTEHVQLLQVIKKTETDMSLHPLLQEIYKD
Experimental: as §1

LogD = assay type: physicochemical; conditions: called measured LogD values
human PPARα [3] = target: T2, human PPARα; conditions: previously reported compound; cited from earlier work
human PPARγ [4] = target: T3, human PPARγ; conditions: previously reported compound; cited from earlier work
FAAH = test system: FAAH; parameters: method as in PMID 23240907; conditions: literature value for carprofen; cited from earlier work

Compound | IC50 (FAAH Human recombinant) [µM] | inhibition at 100 µM (FAAH Human recombinant) [%] | PPARα Emax (human PPARα [3]) | PPARγ Emax (human PPARγ [4]) | further results
CC(Oc1ccc(Cc2ccccc2)cc1)C(=O)O (racemic) [Compound 13, (R,S)-2-(4-benzyl)-phenoxypropanoic acid] | > 100 | 30 |  |  | melting point: 102 to 104 °C; EC50 (human PPARα [1]): 4.6 ± 1.8 µM; Emax (human PPARα [1]): 116 ± 1%
CC(Oc1ccc(CCc2ccccc2)cc1)C(=O)O (racemic) [Compound 16] | > 100 | 32.2 |  |  | EC50 (human PPARγ [2]): 24 ± 6 µM; Emax (human PPARγ [2]): 18 ± 7%; melting point: 106 to 107 °C; EC50 (human PPARα [1]): 17.6 ± 3 µM; Emax (human PPARα [1]): 116 ± 1%
O=C(/C=C/c1ccccc1)O[C@@H](Cc1ccccc1)C(=O)O [(S)-28] | > 100 |  |  |  | Emax (human PPARγ [2]): 9 ± 6%; Emax (human PPARα [1]): 34 ± 8%
Cc1cccc(Nc2cc(Cl)nc(SCC(=O)O)n2)c1C [Compound 2, Wy 14,643, reference compound] | > 100 |  |  |  | activity on FAAH (in words) (FAAH Human recombinant): little to no activity
CCCc1c(OCCCOc2ccc(OCC(=O)O)cc2)ccc(C(C)=O)c1O [Compound 3, L165,041, reference compound] | > 100 | 40 |  |  | activity on FAAH (in words) (FAAH Human recombinant): little to no activity
O=C(/C=C/c1ccc(O)c(O)c1)O[C@H](Cc1ccc(O)c(O)c1)C(=O)O [Compound 4, Rosmarinic acid] | ~100 | 62 |  |  | activity on PPARγ (in words) (human PPARγ [2]): did not find any activity; activity on PPARα (in words) (human PPARα [1]): did not find any activity
O=C(O)COc1ccc(Cc2ccccc2)cc1 [Compound 5, 4-benzyl-phenoxyacetic acid] | 40.2 ± 17.7 |  |  |  | EC50 (human PPARγ [2]): 33 ± 23 µM; Emax (human PPARγ [2]): 9 ± 6%; melting point: 117 to 118 °C; EC50 (human PPARα [1]): 24 ± 5 µM; Emax (human PPARα [1]): 34 ± 8%; logD (LogD): 0.27
CCCCCCCN(CCc1ccc(OCC(=O)O)cc1)c1nc2ccccc2o1 [Compound 8] | 30.5 ± 12.6 |  | 87 ± 7% | 37 ± 11% | EC50 (human PPARα [3]): 0.12 ± 0.16 µM; EC50 (human PPARγ [4]): 0.83 ± 0.75 µM
Oc1ccc(/C=C/c2cc(O)cc(O)c2)cc1 [Compound 12, resveratrol] | 26.1 ± 11.4 |  |  |  | 
O=C(O)C(Cc1ccccc1)Oc1ccc(Cc2ccccc2)cc1 (centres unmarked) [Compound 14] | > 100 |  | 115 ± 27% | 42 ± 1% | activity on FAAH (in words) (FAAH Human recombinant): completely inactive; logD (LogD): 2.62
O=C(O)COc1ccc(CCc2ccccc2)cc1 [Compound 15, 4-phenethyl-phenoxyacetic acid] | ~100 | 63 |  |  | melting point: 130 to 131 °C
CC(Oc1ccc(Cc2ccc(OCc3coc(-c4ccccc4)n3)cc2)cc1)C(=O)O (centres unmarked) [Compound 17] | > 100 |  | 47 ± 13 | 26 ± 3 | 
O=C(O)C(Cc1ccccc1)Oc1ccc(/C=C/c2ccccc2)cc1 (centres unmarked) [Compound 18] | 24 ± 2.5 |  |  |  | 
O=C(O)C(Cc1ccccc1)Oc1ccc(/C=C\c2ccccc2)cc1 (centres unmarked) [Compound 19] | > 100 | 30.5 |  |  | 
O=C(O)C(Cc1ccccc1)Oc1ccc(NCc2ccccc2)cc1 (centres unmarked) [Compound 20] | > 100 | 39.2 | 78 ± 4% | 27 ± 6% | 
O=C(Cc1ccccc1)c1ccc(O[C@@H](Cc2ccccc2)C(=O)O)cc1 [Compound 21] | > 100 | 34 | 106 ± 1% | 40 ± 2% | EC50 (human PPARα [3]): 1.8 ± 1 µM; EC50 (human PPARγ [4]): 9.1 ± 0.9 µM
CCCCCCCN(CCc1ccc(O[C@@H](C)C(=O)O)cc1)c1nc2ccccc2o1 [Compound 25] | ~100 | 45.1 | 78 ± 4% | 32 ± 5% | 
CCCCCCCN(CCc1ccc(O[C@H](C)C(=O)O)cc1)c1nc2ccccc2o1 [Compound 26] | > 100 | 35 | 93 ± 6% | 59 ± 2% | 
O=C(C=Cc1ccc(O)c(O)c1)N[C@@H](Cc1ccccc1)C(=O)O [Compound 33] | 12.6 ± 3.1 |  |  |  | melting point: 198 to 199 °C
COc1ccc(C=CC(=O)N[C@@H](Cc2ccc(O)cc2)C(=O)O)cc1OC [Compound 35, (S)-2-(3-(3,4-dimethoxyphenyl)acrylamido)-3-(4-hydroxyphenyl)propanoic acid] |  |  |  |  | melting point: 105 to 108.5 °C
O=C(Oc1ccc([N+](=O)[O-])cc1)N1CCN(Cc2cccc(Oc3ccccc3)c2)CC1 [JZL195, reference compound] | 0.019 ± 0.003 |  |  |  | 
CC(C(=O)O)c1ccc2c(c1)[nH]c1ccc(Cl)cc12 (centres unmarked) [carprofen] |  |  |  |  | IC50 (FAAH): 79 ± 20 µM
